Some test systems named below: NCI-H23 lung; HOP-92 NSCLC; KM12 colon; CCRF-CEM leukemia; SK-OV-3 ovarian; SNB-75 CNS; NCI/ADR-RES ovarian; SN12C renal; MDA-MB-231 breast; PC-3 prostate.
What all share (assay): DTP human tumour cell line panel, 48 h

Several values for one entry are separate records, joined by “and”; a condition that tells them apart may be missing. Equal values may be shown once.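 Following 48 hours of exposure in 96-well plates, responses at five concentrations were used to interpolate endpoints linearly. Here, GI50 denotes the concentration required for 50% inhibition of growth. TGI denotes the concentration required for complete inhibition of growth.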 Some results are limits rather than exact numbers.

In PubChem BioAssay (NCI) one finds TGI and GI50 data, which are given here for 13 molecules.

For the molecule `C=C(C)[C@@H]1CC[C@]2(C(=O)O)CC[C@]3(C)[C@H](CC[C@@H]4[C@@]5(C)CC(=O)C(C)(C)[C@@H]5CC[C@]43C)[C@@H]12`, the concentration for total growth inhibition (TGI) in the experiment with NCI-H23 lung was > 25 µM; with HOP-92 NSCLC it was > 25 µM; in the experiment with KM12 colon it was > 25 µM; in the experiment on CCRF-CEM leukemia it was 2.86 µM; with SK-OV-3 ovarian it was > 25 µM; in the experiment on SNB-75 CNS it was > 25 µM. The TGI in the experiment on NCI/ADR-RES ovarian is > 25 µM; in the experiment with SN12C renal it was 13.6 µM; in the experiment on MDA-MB-231 breast, 14.3 µM; in the experiment with PC-3 prostate it was 19.7 µM.
As to `O=C1c2c(F)c(F)c(F)c(F)c2SC2=NCCN12`, the total growth inhibition concentration (TGI) in the experiment on NCI-H23 lung was 10.4 µM; in the experiment on HOP-92 NSCLC, 9.19 µM; in the experiment with KM12 colon, 25.6 µM; in the experiment with CCRF-CEM leukemia, > 21.6 µM; in the experiment with SK-OV-3 ovarian, 28.7 µM; with SNB-75 CNS, 29.9 µM. Moreover, the TGI with NCI/ADR-RES ovarian turned out to be 31.3 µM; with SN12C renal it was 21.8 µM; in the experiment with MDA-MB-231 breast it was 22.2 µM; with PC-3 prostate it was 27.2 µM.
Take `O=c1[nH]c(=O)n(C2CC(O)C(CO)O2)cc1I` (stereo not given): the concentration for total growth inhibition (TGI) with NCI-H23 lung, in the experiment with HOP-92 NSCLC, in the experiment on KM12 colon, in the experiment on CCRF-CEM leukemia, with SK-OV-3 ovarian and in the experiment on SNB-75 CNS was > 100 µM throughout. The TGI in the experiment on NCI/ADR-RES ovarian, in the experiment with SN12C renal, in the experiment with MDA-MB-231 breast and in the experiment with PC-3 prostate was > 100 µM in each case.
On to `C=C(C)C(=O)CC[C@@H](C)[C@H]1[C@@H](OC2OC(CO)C(O)C(O)C2O)C[C@@]2(C)[C@@H]3C[C@H](O)C4C(C)(C)[C@@H](OC5OC(CO)C(O)C(O)C5O)CC[C@@]45C[C@@]35CC[C@]12C` (stereo not given in full), for which the TGI with NCI-H23 lung, in the experiment on HOP-92 NSCLC, in the experiment with KM12 colon, in the experiment with CCRF-CEM leukemia, with SK-OV-3 ovarian and with SNB-75 CNS was > 100 µM in each case. Besides, the TGI with NCI/ADR-RES ovarian, in the experiment on SN12C renal, with MDA-MB-231 breast and in the experiment with PC-3 prostate was > 100 µM in each case.
Consider `CCC(C)[C@@H](NCc1ccccc1)[C@H](OCc1ccccc1)[C@@H]1COC(C)(C)O1` (stereo not given in full), for which the TGI with NCI-H23 lung is 44.3 µM; in the experiment on HOP-92 NSCLC it was 31.4 µM; with KM12 colon it was 44.3 µM; in the experiment on CCRF-CEM leukemia it was 60.9 µM; with SK-OV-3 ovarian it was > 100 µM; with SNB-75 CNS, > 100 µM. In addition, the TGI was 55.3 µM in the experiment with NCI/ADR-RES ovarian, 49 µM in the experiment with SN12C renal, 40.4 µM in the experiment on MDA-MB-231 breast and > 100 µM with PC-3 prostate.
Take `CCOC(=O)c1cn(-c2ccccc2)c(=S)n2c1nc1ccccc12`: the TGI in the experiment on NCI-H23 lung is > 100 µM; in the experiment with HOP-92 NSCLC, 47.7 µM; in the experiment on KM12 colon, > 100 µM; in the experiment on CCRF-CEM leukemia, 65.3 µM; with SK-OV-3 ovarian, > 100 µM; with SNB-75 CNS it was > 100 µM. The TGI with NCI/ADR-RES ovarian is > 100 µM; in the experiment on SN12C renal it was > 100 µM; with MDA-MB-231 breast, > 100 µM; in the experiment on PC-3 prostate, > 90 µM.
For the molecule `C=CCC1(O)c2ccccc2C(=O)c2c(O)ccc(O)c21` (stereo not given), the TGI in the experiment with NCI-H23 lung is 56 µM; with HOP-92 NSCLC, 41.1 µM; with KM12 colon it was 30.1 µM; in the experiment on CCRF-CEM leukemia it was 56.7 µM; with SK-OV-3 ovarian, 40.7 µM; with SNB-75 CNS, 25.3 µM. Further, the TGI worked out at 12.1 µM in the experiment with NCI/ADR-RES ovarian, 56.4 µM in the experiment on SN12C renal, 26 µM with MDA-MB-231 breast and 35.5 µM in the experiment with PC-3 prostate.
As for `CC(C)(C)OC(=O)CN1CCNCCNCC1`, the TGI in the experiment on NCI-H23 lung, with HOP-92 NSCLC, in the experiment on KM12 colon, in the experiment on CCRF-CEM leukemia, in the experiment with SK-OV-3 ovarian and in the experiment with SNB-75 CNS was > 100 µM in each case. In addition, the TGI in the experiment with NCI/ADR-RES ovarian, with SN12C renal, in the experiment with MDA-MB-231 breast and in the experiment on PC-3 prostate was > 100 µM each time.
As to `CC[n+]1cnc(N)c2c(-c3ccc(Cl)cc3)cn(-c3ccc(C)cc3)c21`, the TGI in the experiment on NCI-H23 lung is 35.4 µM; in the experiment with HOP-92 NSCLC it was 24.7 µM; in the experiment with KM12 colon, 30.7 µM; in the experiment with CCRF-CEM leukemia, 22.7 µM; with SK-OV-3 ovarian it was 29 µM; in the experiment with SNB-75 CNS, 14.1 µM. Moreover, the TGI with NCI/ADR-RES ovarian was determined as 26.5 µM; in the experiment on SN12C renal, 25.2 µM; in the experiment with MDA-MB-231 breast it was 31.7 µM; with PC-3 prostate, 25 µM.
Turning to `CN(C)c1nc2sc3c(c2c(=O)o1)CCCC3`, the TGI in the experiment on NCI-H23 lung is > 100 µM; in the experiment with HOP-92 NSCLC, > 100 µM; with KM12 colon, > 100 µM; with CCRF-CEM leukemia it was > 100 µM; in the experiment with SK-OV-3 ovarian it was > 100 µM; in the experiment with SNB-75 CNS, 95.2 µM. The TGI in the experiment with NCI/ADR-RES ovarian, in the experiment on SN12C renal, with MDA-MB-231 breast and in the experiment on PC-3 prostate was > 100 µM throughout.
Take `O=C1c2ccccc2C2CNC1(O)c1ccccc12` (stereo not given): the TGI with NCI-H23 lung, with HOP-92 NSCLC, in the experiment on KM12 colon, in the experiment with CCRF-CEM leukemia, in the experiment on SK-OV-3 ovarian and in the experiment on SNB-75 CNS was > 100 µM throughout. In addition, the TGI with NCI/ADR-RES ovarian, with SN12C renal, in the experiment with MDA-MB-231 breast and in the experiment with PC-3 prostate was > 100 µM each time.
Turning to `C1CC2=C(C1)[Se]C(=C1Sc3nsnc3S1)[Se]2`, the TGI in the experiment with NCI-H23 lung, with HOP-92 NSCLC, in the experiment on KM12 colon, in the experiment with CCRF-CEM leukemia, in the experiment with SK-OV-3 ovarian and in the experiment with SNB-75 CNS was > 100 µM in each case. The TGI in the experiment on NCI/ADR-RES ovarian, in the experiment with SN12C renal, in the experiment on MDA-MB-231 breast and in the experiment with PC-3 prostate was > 100 µM each time.
Take `c1ccc(CNC2CC(NCc3ccccn3)CC(NCc3ccccn3)C2)nc1` (stereo not given): the GI50 with NCI-H23 lung is 2.7 µM and 6.69 µM and 1.99 µM; in the experiment with KM12 colon, 2.05 µM; in the experiment with CCRF-CEM leukemia it was 4.64 µM; in the experiment on NCI/ADR-RES ovarian, > 100 µM; in the experiment with MDA-MB-231 breast it was 2.13 µM and 5.66 µM and 2.08 µM; with PC-3 prostate it was 2.24 µM and 4.59 µM and 2.02 µM. Also, the TGI in the experiment on NCI-H23 lung is 7.38 µM and 23.4 µM and 3.89 µM; in the experiment with HOP-92 NSCLC, 9.06 µM and 8.87 µM and 15.2 µM; in the experiment with KM12 colon, 3.8 µM and 6 µM and 4.07 µM; in the experiment on SK-OV-3 ovarian, 7.86 µM and 8.7 µM and 7.17 µM; with SNB-75 CNS, 9.59 µM and 16 µM; in the experiment on NCI/ADR-RES ovarian it was > 100 µM. The TGI is 20.8 µM and 13.6 µM and 17.7 µM in the experiment on SN12C renal; 5.21 µM and 12.5 µM and 4.56 µM with MDA-MB-231 breast; 5.68 µM and 8.75 µM and 3.98 µM with PC-3 prostate.
